The values below are quoted from earlier work in US20070155747A1, “INHIBITORS OF FATTY ACID AMIDE HYDROLASE” (KADMUS PHARMACEUTICALS, INC., priority 2005, published 2007).

The series relates to FAAH. The following applies: literature (Kathuria et al. 2003; Mor et al. 2004; WO 2004/033422).

As for `NC(=O)c1cccc(-c2cccc(OC(=O)NC3CCCCC3)c2)c1` [KDS-4103], the “inhibition of FAAH activity” value was “potent and selective inhibitors of FAAH activity”.
